PubChem BioAssay AID2060885 (Molecular Pharmacology Branch, DTP, NCI, 2025)

Tested on: NCI-H23 complex spheroids with HUVEC/MSC, viability
Assay: Anticancer human tumor NCI-H23 cell line growth inhibition [RAS];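 further: spheroids exposed to compound for 7 days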;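 on viability, T/C: 100% = DMSO vehicle control viability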
Details: for IC50: curve of first compound; for viability, T/C: stronger effect = lower value
How it was run: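 Tumour cells grown as complex spheroids with HUVEC endothelial cells and mesenchymal stem cells, treated with RAS pathway inhibitor combinations. Each agent spans half-log steps from near clinical Cmax, or 10 microM where Cmax is unknown.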

CC1(O)CCCC1n1c(=O)c(C(F)F)cc2cnc(NC3CCN(S(C)(=O)=O)CC3)nc21 (configuration not stated) + CCn1c(-c2cccnc2C(C)OC)c2c3cc(ccc31)N1CCOC(CC(NC(=O)C(C(C)C)N(C)C(=O)C3(F)CCN(C(=O)C#CC(C)(C)N(C)C)CC3)C(=O)N3CCCC(N3)C(=O)OCC(C)(C)C2)C1
IC50 (second compound 0.000949 µM): < 0.0316 µM
IC50 (second compound 0.003 µM): < 0.0316 µM
IC50 (second compound 0.00949 µM): < 0.0316 µM
IC50 (second compound 0.03 µM): < 0.0316 µM
IC50 (second compound 0.0949 µM): < 0.0316 µM
IC50 (second compound 0.3 µM): < 0.0316 µM
viability, T/C (second compound 0.000949 µM, first compound 0.0316 µM): 27.5%
viability, T/C (second compound 0.000949 µM, first compound 0.1 µM): 18.5%
viability, T/C (second compound 0.000949 µM, first compound 0.316 µM): 15%
viability, T/C (second compound 0.000949 µM, first compound 1 µM): 21.3%
viability, T/C (second compound 0.000949 µM, first compound 3.16 µM): 18.9%
viability, T/C (second compound 0.000949 µM, first compound 10 µM): 1.72%
viability, T/C (second compound 0.003 µM, first compound 0.0316 µM): 24.7%
viability, T/C (second compound 0.003 µM, first compound 0.1 µM): 16.5%
viability, T/C (second compound 0.003 µM, first compound 0.316 µM): 17.4%
viability, T/C (second compound 0.003 µM, first compound 1 µM): 17.5%
viability, T/C (second compound 0.003 µM, first compound 3.16 µM): 20.4%
viability, T/C (second compound 0.003 µM, first compound 10 µM): 1.47%
viability, T/C (second compound 0.00949 µM, first compound 0.0316 µM): 25.2%
viability, T/C (second compound 0.00949 µM, first compound 0.1 µM): 14.7%
viability, T/C (second compound 0.00949 µM, first compound 0.316 µM): 15.8%
viability, T/C (second compound 0.00949 µM, first compound 1 µM): 17.1%
viability, T/C (second compound 0.00949 µM, first compound 3.16 µM): 17.4%
viability, T/C (second compound 0.00949 µM, first compound 10 µM): 2.12%
viability, T/C (second compound 0.03 µM, first compound 0.0316 µM): 23%
viability, T/C (second compound 0.03 µM, first compound 0.1 µM): 16.8%
viability, T/C (second compound 0.03 µM, first compound 0.316 µM): 15.1%
viability, T/C (second compound 0.03 µM, first compound 1 µM): 18.7%
viability, T/C (second compound 0.03 µM, first compound 3.16 µM): 14.6%
viability, T/C (second compound 0.03 µM, first compound 10 µM): 2.81%
viability, T/C (second compound 0.0949 µM, first compound 0.0316 µM): 19.2%
viability, T/C (second compound 0.0949 µM, first compound 0.1 µM): 17.1%
viability, T/C (second compound 0.0949 µM, first compound 0.316 µM): 17.8%
viability, T/C (second compound 0.0949 µM, first compound 1 µM): 15.5%
viability, T/C (second compound 0.0949 µM, first compound 3.16 µM): 14.9%
viability, T/C (second compound 0.0949 µM, first compound 10 µM): 2.88%
viability, T/C (second compound 0.3 µM, first compound 0.0316 µM): 19.5%
viability, T/C (second compound 0.3 µM, first compound 0.1 µM): 16.9%
viability, T/C (second compound 0.3 µM, first compound 0.316 µM): 15.1%
viability, T/C (second compound 0.3 µM, first compound 1 µM): 16.7%
viability, T/C (second compound 0.3 µM, first compound 3.16 µM): 15.6%
viability, T/C (second compound 0.3 µM, first compound 10 µM): 2.05%
